Measurements from the supplement of paper PMC10307832.

Tests used:
Assay in all cases: relative viability (nuclei count vs DMSO), 5 days (fraction); higher = more cells survive
[1] = compound: CO[C@@H]1[C@H](N(C)C(=O)c2ccccc2)C[C@H]2O[C@]1(C)n1c3ccccc3c3c4c(c5c6ccccc6n2c5c31)C(=O)NC4 [Midostaurin] + COc1cc2c(Oc3ccc(NC(=O)C4(C(=O)Nc5ccc(F)cc5)CC4)cc3F)ccnc2cc1OCCCN1CCOCC1 [Foretinib] (partner 0.25 µM)
Summary of the method: (§1)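 Lung cancer cell lines were seeded in 1536-well plates and dosed by pin tool the next day, with either a single drug or a fixed anchor-drug dose combined with five library-drug doses (not always all listed) spaced in √10 steps. Five days later, one step fixed the cells and stained their nuclei (final 0.05% Triton X-100, 1% formaldehyde, 1 ug/ml Hoechst), and nuclei were counted on 4× images. Relative viability is the nuclei count in treated wells divided by the count in vehicle wells, and each value is the median of duplicate plates.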

[2] = compound: COc1cc(-c2nn([C@H]3CC[C@H](N4CCN(C(C)=O)CC4)CC3)c3ncnc(N)c23)ccc1NC(=O)c1cc2ccccc2n1C + Nc1ncn([C@H]2C[C@H](O)[C@@H](CO)O2)c(=O)n1 [Decitabine] (partner 2 µM)
Summary of the method: as §1

[3] = compound: COc1cc(-c2nn([C@H]3CC[C@H](N4CCN(C(C)=O)CC4)CC3)c3ncnc(N)c23)ccc1NC(=O)c1cc2ccccc2n1C + O=C(c1cc(Cc2n[nH]c(=O)c3ccccc23)ccc1F)N1CCN(C(=O)C2CC2)CC1 [Olaparib] (partner 8 µM)
Summary of the method: as §1

[4] = compound: COc1cc(-c2nn([C@H]3CC[C@H](N4CCN(C(C)=O)CC4)CC3)c3ncnc(N)c23)ccc1NC(=O)c1cc2ccccc2n1C + Cc1cc(Nc2cc(N3CCN(C)CC3)nc(Sc3ccc(NC(=O)C4CC4)cc3)n2)n[nH]1 [Tozasertib] (partner 0.1 µM)
Summary of the method: as §1

[5] = compound: COc1cc(-c2nn([C@H]3CC[C@H](N4CCN(C(C)=O)CC4)CC3)c3ncnc(N)c23)ccc1NC(=O)c1cc2ccccc2n1C + O=C(CCCCCCC(=O)Nc1ccccc1)NO [Vorinostat] (partner 1 µM)
Summary of the method: as §1

Row | Cell Line | relative viability ([1]; first compound 0.01 µM) | relative viability ([1]; first compound 0.03162 µM) | relative viability ([1]; first compound 0.1 µM) | relative viability ([1]; first compound 0.3162 µM) | relative viability ([2]; first compound 0.0128 µM) | relative viability ([2]; first compound 0.04048 µM) | relative viability ([2]; first compound 0.128 µM) | relative viability ([2]; first compound 1.28 µM) | relative viability ([3]; first compound 0.0128 µM) | relative viability ([3]; first compound 0.04048 µM) | relative viability ([3]; first compound 0.128 µM) | relative viability ([3]; first compound 1.28 µM) | relative viability ([4]; first compound 0.0128 µM) | relative viability ([4]; first compound 0.04048 µM) | relative viability ([4]; first compound 0.128 µM) | relative viability ([4]; first compound 1.28 µM) | relative viability ([5]; first compound 0.0128 µM) | relative viability ([5]; first compound 0.04048 µM) | relative viability ([5]; first compound 0.128 µM) | relative viability ([5]; first compound 1.28 µM)
1 | COR-L23 | 1.03 | 0.954 | 0.9 | 0.892 | 0.509 | 0.451 | 0.446 | 0.499 | 0.347 | 0.41 | 0.367 | 0.395 | 0.246 | 0.217 | 0.147 | 0.133 | 0.528 | 0.615 | 0.42 | 0.558
2 | HCC-78 | 0.65 | 0.532 | 0.541 | 0.555 | 0.674 | 0.689 | 0.701 | 0.539 | 0.938 | 0.933 | 0.768 | 0.456 | 0.456 | 0.368 | 0.742 | 0.269 | 0.462 | 0.547 | 0.422 | 0.298
3 | NCI-H727 | 1.11 | 0.932 | 0.829 | 0.846 | 0.925 |  | 1.01 | 0.84 | 0.674 |  | 0.819 | 0.78 | 0.65 |  | 0.581 | 0.477 | 1.35 |  | 1.22 | 1.25
4 | NCI-H2087 | 1.15 | 0.942 | 1.21 | 0.775 | 0.331 |  | 0.198 | 0.225 | 0.644 |  | 0.616 | 0.722 | 0.221 |  | 0.216 | 0.194 | 0.745 |  | 0.798 | 0.987
5 | BEN | 0.719 | 0.803 | 0.966 | 0.667 | 0.571 | 0.733 | 0.708 | 0.582 | 1.1 | 1.05 | 1.02 | 0.848 | 0.56 | 0.569 | 0.518 | 0.432 | 0.591 | 0.561 | 0.59 | 0.483
6 | LCLC-103H | 0.729 | 0.661 | 0.656 | 0.791 | 0.832 | 0.725 | 0.691 | 0.759 | 0.851 | 0.79 | 0.615 | 0.773 | 0.438 | 0.453 | 0.431 | 0.423 | 0.63 | 0.768 | 0.802 | 0.819
7 | EKVX | 0.824 | 0.76 | 0.702 | 0.78 | 0.372 | 0.36 | 0.349 | 0.288 | 1.01 | 0.972 | 0.774 | 0.409 | 0.398 | 0.379 | 0.332 | 0.19 | 0.966 | 0.801 | 0.674 | 0.382
8 | LXF-289 | 0.967 | 0.941 | 0.897 | 0.988 | 0.419 | 0.368 | 0.369 | 0.362 | 1.17 | 1.08 | 1.11 | 0.982 | 0.219 | 0.217 | 0.17 | 0.0946 | 0.898 | 0.795 | 0.734 | 0.794
9 | ABC-1 | 1.03 | 1.14 | 0.828 | 1.11 | 1.19 | 1.03 | 0.835 | 0.998 | 0.6 | 0.835 | 0.665 | 0.806 | 0.151 | 0.205 | 0.176 | 0.154 | 1.21 | 0.965 | 1.19 | 1.14
10 | NCI-H650 | 0.959 | 0.95 | 1.01 | 0.767 | 0.319 | 0.35 | 0.304 | 0.306 | 0.418 | 0.453 | 0.407 | 0.468 | 0.663 | 0.747 | 0.735 | 0.732 | 0.633 | 0.709 | 0.443 | 0.517
11 | NCI-H1650 | 1.16 | 1.11 | 0.911 | 1.19 | 0.49 | 0.497 | 0.341 | 0.515 | 0.822 | 0.894 | 0.804 | 0.731 | 0.36 | 0.374 | 0.351 | 0.2 | 0.575 | 0.829 | 0.663 | 0.578
12 | NCI-H2085 | 1.02 | 0.845 | 0.863 | 0.555 | 0.579 | 0.436 | 0.58 | 0.553 | 0.817 | 0.891 | 0.804 | 0.653 | 0.827 | 0.867 | 0.728 | 0.372 | 0.83 | 1.17 | 0.764 | 0.759
13 | NCI-H1793 | 0.674 | 0.644 | 0.533 | 0.369 | 0.55 | 0.468 | 0.509 | 0.364 | 0.989 | 1.08 | 0.731 | 0.427 | 0.367 | 0.343 | 0.228 | 0.126 | 0.981 | 0.658 | 0.794 | 0.528
14 | LC-2-ad | 0.919 | 0.897 | 0.914 | 1.04 | 0.818 | 0.778 | 0.723 | 0.854 | 0.783 | 0.835 | 0.658 | 0.8 | 0.379 | 0.542 | 0.405 | 0.371 | 0.857 | 0.742 | 0.703 | 0.703
15 | COR-L 105 | 1.04 | 1.04 | 0.909 | 1.09 | 0.645 | 0.724 | 0.653 | 0.559 | 0.798 | 0.676 | 0.594 | 0.478 | 0.335 | 0.309 | 0.355 | 0.269 | 0.75 | 1.04 | 0.907 | 0.584
16 | NCI-H1355 | 1.02 | 0.913 | 0.817 | 0.971 | 0.332 | 0.35 | 0.338 | 0.372 | 0.798 | 0.831 | 0.756 | 0.684 | 0.541 | 0.551 | 0.497 | 0.28 | 0.801 | 0.639 | 0.641 | 0.625
